Consider 17 molecules from US6197768A, “Pyridocarbazole derivatives having cgmp-pde inhibitory activity” (Mochida Pharmaceutical Co., Ltd., priority 1996, dated 2001).

SMILES strings stand for the structures.

One assay relates to systemic blood pressure. Put plainly: Systemic blood (aortic) pressure lowering in anesthetized dogs. Type of assay: in vivo, adult mongrel dogs. Here is the method: (§1) Adult mongrel dogs were anesthetized by intramuscular administration of 20 mg/kg of ketamine and intravenous administration of 20 mL/kg of physiological saline containing 5 mg/mL of α-chloralose; under artificial respiration, the aortic pressure was measured with a catheter inserted into the femoral artery and the pulmonary arterial pressure with a Swan-Ganz catheter inserted into the pulmonary artery. Anesthesia was maintained by intravenous administration of physiological saline containing 5 mg/mL of α-chloralose at a rate of 5 mL/kg per hour. Comparison was made between nitroglycerin, nifedipine and test compounds which were administered intravenously at doses of 0.01-1 mg/kg. Each test compound was dissolved in dimethylformamide (DMF) and sequentially diluted with polyethylene glycol 200 and water to give respective proportions of 20, 50 and 30% (v/v) and administrated by injection into the right femoral vein in a volume of 0.3 mL/kg. The results are shown in Table 2 below, in which maximal percent decreases in the pulmonary arterial pressure and aortic pressure are listed to show the effectiveness of each test compound in lowering the pulmonary arterial pressure and the systemic blood pressure, respectively.

Assay [1] relates to pulmonary arterial pressure. Put plainly: Pulmonary Arterial Pressure Lowering Action in anesthetized dogs. The following applies: anesthetized dogs. Format: in vivo, adult mongrel dogs. As to the method:
as §1

Another assay concerns PDE type I. Put plainly: PDE Inhibiting Activity, type I. Format: biochemical, dog (canine aorta). As to conditions: PDE type I from canine aorta, 1 μM substrate, pH 7.5; read-out: Inhibition Activity IC50, Type I. Here is the method: (§2) On the basis of the method of Lugnier et al. (Biochem. Pharmacol., 35, 1743-1751, 1986), PDE was purified from the aorta in a dog. The canine aorta was minced and homogenized with a Waring Blender and a glass homogenizer in six volumes of a Tris-HCl buffer solution (pH 7.5, 20 mM) containing 2 mM magnesium acetate, 5 mM ethylenediaminetetraacetic acid (EDTA), 100 μg/mL of phenylmethylsulforyl fluoride and 15 mM 2-mercaptoethanol (2-ME), and centrifuged at 1200 xg for 30 min. The supernatant was separated and salted out with ammonium sulfate which was added to 45% saturation. The resulting precipitated fraction was resuspended in a Tris-HCl buffer solution (pH 7.5, 20 mM) containing 2 mM magnesium acetate and 1 mM 2-ME, dialyzed overnight and applied to a DEAE-trisacryl column (DEAE […] M:IBF). By elution with a sodium chloride gradient (0-0.4 M), PDE types V and III were separated from the other isozymes. The supernatant fraction of 45% saturated ammonium sulfate was further mixed with ammonium sulfate to 65% saturation and salted out. The resulting precipitated fraction was similarly applied to the DEAE-trisacryl column and eluted by a sodium chloride gradient (0-0.4 M) so as to separate PDE type I.
(§3) The thus obtained PDE types V, III and I were measured for their activity in accordance with the method of Thompson et al. (Adv. Cyclic Nucleotide Res., 10, 69-72, 1979) and the method of Wells et al. (Biochim. Biophys. Acta, 384, 430-443, 1975). Specifically, a purified PDE sample was added to 50 mM Tris-HCl buffer solution (pH 7.5) containing 1 μM of substrate cGMP or cAMP (containing tritium-labelled cGMP or cAMP), 1 mM EGTA and 2 mM magnesium acetate. For PDE activity measurement, enzymatically produced 5' GMP or 5' AMP was further hydrolyzed into guanosine or adenosine with snake venom and separated from the substrate by means of an ion-exchange resin (Dowex 1-X2), followed by measuring with a scintillation counter. The activity of each test compound was determined as a percentage of the DPE activity measured when it was added as a dimethyl sulfoxide solution (DMSO) and its IC50 (50% inhibition concentration) was calculated by the probit method. The final concentration of DMSO was adjusted to be no more than 2% in consideration of the effect on PDE activity.

The target of the next assay is T1, PDE type III (Canis lupus familiaris, UniProt A0A8I3NYE0).
T1 construct: PDE was purified from the aorta in a dog; from tissue; host or cells: dog aorta
T1 sequence (A0A8I3NYE0 1-1135): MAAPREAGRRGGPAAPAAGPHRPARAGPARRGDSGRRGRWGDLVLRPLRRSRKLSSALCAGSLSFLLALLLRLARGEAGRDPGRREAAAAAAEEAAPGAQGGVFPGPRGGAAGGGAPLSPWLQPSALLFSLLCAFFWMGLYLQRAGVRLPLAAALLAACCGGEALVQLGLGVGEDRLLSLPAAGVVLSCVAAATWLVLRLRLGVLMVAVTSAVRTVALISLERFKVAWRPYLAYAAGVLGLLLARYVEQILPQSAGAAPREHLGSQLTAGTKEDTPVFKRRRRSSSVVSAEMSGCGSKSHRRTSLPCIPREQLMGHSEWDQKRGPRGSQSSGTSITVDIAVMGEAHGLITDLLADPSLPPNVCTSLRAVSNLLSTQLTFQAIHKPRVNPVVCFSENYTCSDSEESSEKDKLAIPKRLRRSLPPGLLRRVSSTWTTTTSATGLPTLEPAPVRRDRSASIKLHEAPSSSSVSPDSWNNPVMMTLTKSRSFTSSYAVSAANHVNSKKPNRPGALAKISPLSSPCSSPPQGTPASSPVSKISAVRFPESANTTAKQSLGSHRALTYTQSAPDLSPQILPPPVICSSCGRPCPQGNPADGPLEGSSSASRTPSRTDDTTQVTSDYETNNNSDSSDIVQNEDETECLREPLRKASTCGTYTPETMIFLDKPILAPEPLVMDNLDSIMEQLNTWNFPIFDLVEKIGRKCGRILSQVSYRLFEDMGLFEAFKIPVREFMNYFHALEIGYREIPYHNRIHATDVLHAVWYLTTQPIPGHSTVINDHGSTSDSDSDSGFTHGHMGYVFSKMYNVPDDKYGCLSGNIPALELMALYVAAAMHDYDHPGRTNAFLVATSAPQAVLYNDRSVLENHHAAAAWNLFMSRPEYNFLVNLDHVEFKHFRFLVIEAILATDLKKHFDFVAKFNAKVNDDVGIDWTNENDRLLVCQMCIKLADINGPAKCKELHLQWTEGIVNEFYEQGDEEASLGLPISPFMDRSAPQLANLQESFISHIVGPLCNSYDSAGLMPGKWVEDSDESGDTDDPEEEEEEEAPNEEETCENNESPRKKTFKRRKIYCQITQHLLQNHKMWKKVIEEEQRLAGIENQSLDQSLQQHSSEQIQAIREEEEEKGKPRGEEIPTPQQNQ
As to the kind of experiment: PDE Inhibiting Activity, type III. Type of assay: biochemical, dog (canine aorta). The following applies: PDE type III from canine aorta, 1 μM substrate, pH 7.5; read-out: Inhibition Activity IC50, Type III. As to the method:
as §2, §3

[2] abbreviates: Canis lupus familiaris, iv, 0.3 mg/kg intravenous, anesthetized dogs, maximal percent decrease, read-out: Reduction in systemic blood pressure.
Where [3] appears, read: Canis lupus familiaris, iv, 0.3 mg/kg intravenous, maximal percent decrease, read-out: Reduction in pulmonary arterial pressure.

The term IC50 denotes the concentration at which inhibition is half-maximal. As to `CC(C)(C)OC(=O)COc1cc2c(=O)c(Cc3cccnc3)cn3c4ccc(Br)cc4c(c1)c23` [Example 3, 10-bromo-2-t-butoxycarbonylmethyloxy-5-(3-pyridylmethyl)-4H-pyrido [3,2,1-jk]carbazole-4-one], the inhibition in vivo at 0.3 mg/kg was 12% in the assay with systemic blood pressure (setting [2]) and 19% in assay [1] (setting [3]). In addition, the IC50 with PDE type I and on PDE type III was > 30 µM in each case.

As to `Cc1cn2c3ccc(Br)cc3c3cc(OCC(=O)OC(C)(C)C)cc(c1=O)c32` [Example 50, 10-bromo-2-t-butoxycarbonylmethyloxy-5-methyl-4H-pyrido [3,2,1-jk]carbazole-4-one], the figures for the inhibition in vivo at 0.3 mg/kg (with systemic blood pressure (setting [2]); in assay [1] (setting [3])) were 13% and 33%, respectively. In addition, the IC50 with PDE type I and on PDE type III was > 30 µM each time.

Consider `CC(C)(C)OC(=O)COc1cc2c(=O)ccn3c4ccc(Br)cc4c(c1)c23` [Example 60, 10-bromo-2-t-butoxycarbonylmethyloxy-4H-pyrido [3,2,1-jk]carbazole-4-one], for which the inhibition in vivo at 0.3 mg/kg in the assay with systemic blood pressure (setting [2]) amounted to 8%; in assay [1] (setting [3]), 20%. The IC50 is > 30 µM in the assay with PDE type I and 15 µM on PDE type III.

Consider `O=c1c(Cc2cccnc2)cn2c3cc(Br)ccc3c3cc(O)cc1c32` [Example 102, 9-bromo-2-hydroxy-5-(3-pyridylmethyl)-4H-pyrido [3,2,1-jk]carbazole-4-one], for which the inhibition in vivo at 0.3 mg/kg with systemic blood pressure (setting [2]) stood at 19%; in assay [1] (setting [3]), 24%. Also, the IC50 with PDE type I was > 30 µM; on PDE type III, 9.3 µM.

In the case of `O=c1c(Cc2cccnc2)cn2c3cc(Br)ccc3c3cc(OCc4cccnc4)cc1c32` [Example 105, 9-bromo-5-(3-pyridylmethyl)-2-(3-pyridylmethyloxy)-4H-pyrido [3,2,1-jk]carbazole-4-one], the inhibition in vivo at 0.1 mg/kg came out at 12% in the assay on systemic blood pressure (Canis lupus familiaris, iv, 0.1 mg/kg intravenous, anesthetized dogs, maximal percent decrease, read-out: Reduction in systemic blood pressure) and 16% in assay [1] (Canis lupus familiaris, iv, 0.1 mg/kg intravenous, maximal percent decrease, read-out: Reduction in pulmonary arterial pressure). Also, the IC50 was > 30 µM in the assay on PDE type I and 2.4 µM at PDE type III.

With `COc1cc2c(=O)c(Cc3ccccc3)cn3c4cc(Br)ccc4c(c1)c23` [Example 121, 5-benzyl-9-bromo-2-methoxy-4H-pyrido [3,2,1-jk]carbazole-4-one], the IC50 in the assay on PDE type I and at PDE type III was > 30 µM in each case.

`O=c1c(Cc2ccccc2)cn2c3cc(Br)ccc3c3cc(O)cc1c32` [Example 122, 5-benzyl-9-bromo-2-hydroxy-4H-pyrido [3,2,1-jk]carbazole-4-one]: the results for the IC50 in the assay on PDE type I and at PDE type III were > 30 µM and 13 µM, respectively.

For `CC(=O)Oc1cc2c(=O)c(Cc3cccnc3)cn3c4ccccc4c(c1)c23` [Example 156], the IC50 with PDE type I is > 30 µM; at PDE type III, 5.6 µM.

For `CC(=O)Oc1ccc2c3cccc4c(=O)c(Cc5cccnc5)cn(c2c1)c43` [Example 226], the values for the IC50 in the assay on PDE type I and at PDE type III were > 30 µM and 12 µM, respectively.

For `CCOC(=O)COc1cc2c(=O)c(Cc3cccnc3)cn3c4ccc(Cl)cc4c(c1)c23` [Example 245], the IC50 in the assay on PDE type I is > 30 µM; at PDE type III, 3.9 µM.

Take `Cc1cc2c(=O)ccn3c4ccc(Br)cc4c(c1)c23` [Example 277]: the IC50 in the assay on PDE type I and on PDE type III was > 30 µM in each case.

Take `CS(=O)(=O)O.O=c1c(Cc2cccnc2)cn2c3cc(Br)ccc3c3cc(OCCCO)cc1c32` [Example 279, 9-bromo-2-(3-hydroxypropyloxy)-5-(3-pyridylmethyl)-4H-pyrido[3,2,1-jk]carbazole-4-one methanesulfonate]: in the assay with systemic blood pressure (0.3 mg/kg intravenous, anesthetized dogs, maximal percent decrease), the “Reduction in systemic blood pressure” value is on record as 4%. Further, the “Reduction in pulmonary arterial pressure” value in assay [1] (0.3 mg/kg intravenous, maximal percent decrease) turned out to be 17%.

As for `O=c1c(Cc2cccnc2)cn2c3cc(Cl)ccc3c3cc(OCCCO)cc1c32` [Example 283, 9-chloro-2-(3-hydroxypropyloxy)-5-(3-pyridylmethyl)-4H-pyrido[3,2,1-jk]carbazole-4-one], the IC50 is > 30 µM in the assay with PDE type I and 3.6 µM on PDE type III.

With `O=c1c(Cc2cccnc2)cn2c3cc(Cl)ccc3c3cc(OCCCO)cc1c32` [Example 285, 9-chloro-2-(3-hydroxypropyloxy)-5-(3-pyridylmethyl)-4H-pyrido[3,2,1-jk]carbazole-4-one methanesulfonate], the inhibition in vivo at 0.3 mg/kg in the assay on systemic blood pressure (setting [2]) was determined as 2%; in assay [1] (setting [3]), 16%.

For the molecule `O=c1c(Cc2cccnc2)cn2c3cc(C(F)(F)F)ccc3c3cc(OCCCO)cc1c32` [Example 289, 2-(3-hydroxypropyloxy)-5-(3-pyridylmethyl)-9-trifluoromethyl-4H-pyrido[3,2,1-jk]carbazole-4-one], the IC50 with PDE type I is > 30 µM; at PDE type III, 2.5 µM.

For the molecule `O=c1c(Cc2cccnc2)cn2c3cc(C(F)(F)F)ccc3c3cc(OCCCO)cc1c32` [Example 291, 2-(3-hydroxypropyloxy)-5-(3-pyridylmethyl)-9-trifluoromethyl-4H-pyrido[3,2,1-jk]carbazole-4-one methanesulfonate], the inhibition in vivo at 0.3 mg/kg in the assay on systemic blood pressure (setting [2]) is 4%; in assay [1] (setting [3]), 13%.

For the molecule `COC(=O)C1=C(C)NC(C)=C(C(=O)OC)C1c1ccccc1[N+](=O)[O-]` [Nifedipine, nifedipine, reference compound], the inhibition in vivo at 0.01 mg/kg turned out to be 18% in the assay with systemic blood pressure (Canis lupus familiaris, iv, read-out: Reduction in systemic blood pressure) and 3% in assay [1] (Canis lupus familiaris, iv, 0.01 mg/kg intravenous, maximal percent decrease, read-out: Reduction in pulmonary arterial pressure). Besides, in assay [1] (intravenous), the “pulmonary arterial versus systemic blood pressure lowering (in words)” value is reported as “lowered the systemic blood pressure by greater degrees than the pulmonary arterial pressure”.
